Conditions: Hot wire method

FC(F)(F)/C=C/Cl [(E)-1-chloro-3,3,3-trifluoroprop-1-ene]
Conditions | thermal conductivity [W/m/K]
283.61 K, 46184 kPa, Liquid | 0.1051
283.62 K, 194 kPa, Liquid | 0.08723
283.64 K, 39507 kPa, Liquid | 0.1031
283.71 K, 33240 kPa, Liquid | 0.1008
283.73 K, 64639 kPa, Liquid | 0.1101
283.76 K, 27097 kPa, Liquid | 0.09854
283.77 K, 55316 kPa, Liquid | 0.1077
283.82 K, 46190 kPa, Liquid | 0.1049
283.86 K, 39512 kPa, Liquid | 0.1027
283.93 K, 33245 kPa, Liquid | 0.1004
283.99 K, 27090 kPa, Liquid | 0.0982
301.07 K, 36400 kPa, Liquid | 0.09652
301.1 K, 25797 kPa, Liquid | 0.09286
301.12 K, 8081 kPa, Liquid | 0.08639
301.14 K, 16454 kPa, Liquid | 0.08935
301.14 K, 36402 kPa, Liquid | 0.09595
301.16 K, 25808 kPa, Liquid | 0.09205
301.18 K, 7827 kPa, Liquid | 0.08636
301.18 K, 8082 kPa, Liquid | 0.08488
301.18 K, 25511 kPa, Liquid | 0.09374
301.2 K, 16447 kPa, Liquid | 0.08939
301.24 K, 25515 kPa, Liquid | 0.09289
301.25 K, 302 kPa, Liquid | 0.08142
301.25 K, 4078 kPa, Liquid | 0.08444
301.25 K, 7830 kPa, Liquid | 0.08532
301.27 K, 16013 kPa, Liquid | 0.08986
301.31 K, 4086 kPa, Liquid | 0.08339
301.33 K, 303 kPa, Liquid | 0.08177
301.39 K, 62986 kPa, Liquid | 0.1067
301.41 K, 56492 kPa, Liquid | 0.1055
301.42 K, 48436 kPa, Liquid | 0.1008
301.43 K, 65550 kPa, Liquid | 0.1085
301.44 K, 36396 kPa, Liquid | 0.09731
301.47 K, 62992 kPa, Liquid | 0.1061
301.48 K, 42020 kPa, Liquid | 0.09884
301.49 K, 25801 kPa, Liquid | 0.09292
301.49 K, 56482 kPa, Liquid | 0.1049
301.5 K, 36232 kPa, Liquid | 0.09714
301.5 K, 48438 kPa, Liquid | 0.1006
301.5 K, 65547 kPa, Liquid | 0.1082
301.52 K, 47198 kPa, Liquid | 0.101
301.53 K, 8090 kPa, Liquid | 0.08523
301.53 K, 36388 kPa, Liquid | 0.09726
301.54 K, 16449 kPa, Liquid | 0.09014
301.54 K, 20530 kPa, Liquid | 0.09027
301.55 K, 25503 kPa, Liquid | 0.09319
301.55 K, 30551 kPa, Liquid | 0.09454
301.56 K, 143 kPa, Gas | 0.01127
301.56 K, 145 kPa, Gas | 0.01102
301.56 K, 42014 kPa, Liquid | 0.09907
301.57 K, 36234 kPa, Liquid | 0.09632
301.58 K, 25794 kPa, Liquid | 0.0925
301.59 K, 122 kPa, Gas | 0.01123
301.59 K, 131 kPa, Gas | 0.01121
301.6 K, 7831 kPa, Liquid | 0.08616
301.6 K, 11892 kPa, Liquid | 0.08784
301.6 K, 47198 kPa, Liquid | 0.1006
301.61 K, 16007 kPa, Liquid | 0.08871
301.62 K, 8093 kPa, Liquid | 0.08518
301.63 K, 367 kPa, Liquid | 0.08213
301.63 K, 7868 kPa, Liquid | 0.08523
301.63 K, 16455 kPa, Liquid | 0.08833
301.63 K, 20523 kPa, Liquid | 0.09097
301.63 K, 30560 kPa, Liquid | 0.09455
301.65 K, 25502 kPa, Liquid | 0.09219
301.68 K, 4077 kPa, Liquid | 0.08414
301.69 K, 311 kPa, Liquid | 0.08156
301.69 K, 11881 kPa, Liquid | 0.08767
301.69 K, 16012 kPa, Liquid | 0.08885
301.7 K, 7834 kPa, Liquid | 0.08567
301.72 K, 7864 kPa, Liquid | 0.08629
301.73 K, 363 kPa, Liquid | 0.08194
301.77 K, 4081 kPa, Liquid | 0.08378
301.78 K, 307 kPa, Liquid | 0.08197
301.79 K, 62991 kPa, Liquid | 0.1059
301.81 K, 65522 kPa, Liquid | 0.1076
301.83 K, 48074 kPa, Liquid | 0.1002
301.88 K, 36387 kPa, Liquid | 0.09695
301.89 K, 143 kPa, Gas | 0.01116
301.89 K, 62976 kPa, Liquid | 0.1058
301.9 K, 141 kPa, Gas | 0.01138
301.9 K, 65529 kPa, Liquid | 0.1065
301.91 K, 122 kPa, Gas | 0.01121
301.91 K, 42002 kPa, Liquid | 0.09897
301.92 K, 130 kPa, Gas | 0.01129
301.92 K, 36223 kPa, Liquid | 0.09724
301.92 K, 56462 kPa, Liquid | 0.1042
301.93 K, 47191 kPa, Liquid | 0.1005
301.94 K, 25799 kPa, Liquid | 0.09347
301.94 K, 48073 kPa, Liquid | 0.1008
301.94 K, 48421 kPa, Liquid | 0.1013
301.98 K, 30546 kPa, Liquid | 0.09459
301.99 K, 36387 kPa, Liquid | 0.09693
302 K, 16444 kPa, Liquid | 0.08896
302.01 K, 8085 kPa, Liquid | 0.08503
302.01 K, 20519 kPa, Liquid | 0.09088
302.01 K, 25500 kPa, Liquid | 0.09318
302.02 K, 41998 kPa, Liquid | 0.09906
302.03 K, 47196 kPa, Liquid | 0.1005
302.04 K, 36232 kPa, Liquid | 0.09691
302.05 K, 25799 kPa, Liquid | 0.0933
302.07 K, 11891 kPa, Liquid | 0.08755
302.07 K, 16014 kPa, Liquid | 0.08895
302.08 K, 7823 kPa, Liquid | 0.08555
302.09 K, 30563 kPa, Liquid | 0.0947
302.12 K, 7862 kPa, Liquid | 0.08568
302.12 K, 16448 kPa, Liquid | 0.08904
302.12 K, 20518 kPa, Liquid | 0.09092
302.12 K, 25501 kPa, Liquid | 0.09247
302.13 K, 365 kPa, Liquid | 0.08182
302.13 K, 8079 kPa, Liquid | 0.08538
302.16 K, 4079 kPa, Liquid | 0.0839
302.19 K, 312 kPa, Liquid | 0.08161
302.19 K, 11879 kPa, Liquid | 0.08708
302.19 K, 16009 kPa, Liquid | 0.08853
302.2 K, 7820 kPa, Liquid | 0.08528
302.24 K, 7854 kPa, Liquid | 0.08541
302.25 K, 142 kPa, Gas | 0.01122
302.25 K, 62977 kPa, Liquid | 0.106
302.26 K, 139 kPa, Gas | 0.01122
302.26 K, 383 kPa, Liquid | 0.08132
302.27 K, 65494 kPa, Liquid | 0.1068
302.28 K, 122 kPa, Gas | 0.01119
302.28 K, 130 kPa, Gas | 0.01138
302.28 K, 56452 kPa, Liquid | 0.1046
302.29 K, 4074 kPa, Liquid | 0.08366
302.3 K, 48061 kPa, Liquid | 0.1009
302.31 K, 299 kPa, Liquid | 0.08152
302.31 K, 48422 kPa, Liquid | 0.1015
302.37 K, 62973 kPa, Liquid | 0.1058
302.38 K, 36377 kPa, Liquid | 0.09716
302.39 K, 42000 kPa, Liquid | 0.09898
302.39 K, 65480 kPa, Liquid | 0.1069
302.4 K, 56441 kPa, Liquid | 0.104
302.41 K, 36234 kPa, Liquid | 0.09718
302.41 K, 47190 kPa, Liquid | 0.1008
302.42 K, 48052 kPa, Liquid | 0.1012
302.44 K, 48420 kPa, Liquid | 0.1011
302.45 K, 25800 kPa, Liquid | 0.09349
302.47 K, 30544 kPa, Liquid | 0.0948
302.51 K, 20515 kPa, Liquid | 0.09108
302.51 K, 25497 kPa, Liquid | 0.09286
302.51 K, 36380 kPa, Liquid | 0.09677
302.52 K, 41997 kPa, Liquid | 0.0988
302.53 K, 132 kPa, Gas | 0.0109
